The results in this text go back to patent US20150352134A1, “COMPOSITION FOR TOPICAL SKIN APPLICATION CONTAINING GINSENOSIDE F2 DERIVED FROM HYDROPONIC GINSENG” (AMOREPACIFIC CORPORATION, priority 2012, published 2015).

In one test the test system is MITF. Briefly: MITF expression in melanocytes (Western Blot). The class given is cell-based. The settings on record: 501me1 cell line, IBMX 100 μM, ginsenoside 10 ppm. The method, then: 501me1 cell line is injected in each well of a 6-well microtiter plate at a rate of 500,000 cells/well. The cell line in each well is treated with 0.1% of DMSO as the negative control group, 100 μM of IBMX as the positive control group, or ginsenoside 10 ppm of F2 as the test group, and cultured at 37° C. for 24 hours, 48 hours, or 72 hours, to obtain proteins. The proteins thus obtained are subjected to Western Blot using MITF and tyrosinase antibodies. Protein extraction and Western Blot are performed using the standard methods known in the art.
In general terms: A western blot detects proteins with antibodies after separation by electrophoresis.

Test [1] relates to Keratinocytes isolated from the human epidermal tissue. Kind of test: Inhibition of reactive oxygen species formation after UVB (DCF-DA fluorescence). Conditions: 1% ginsenoside F2; for ratio to the ROS of the control group, elapsed time after exposure to 30 mJ/cm^2 of UVB 0 hr: 0 hr after 30 mJ/cm^2 UVB; for ratio to the ROS of the control group, elapsed time after exposure to 30 mJ/cm^2 of UVB 2 hrs: 2 hrs after 30 mJ/cm^2 UVB; for ratio to the ROS of the control group, elapsed time after exposure to 30 mJ/cm^2 of UVB 3 hrs: 3 hrs after 30 mJ/cm^2 UVB. The class given is cell-based. The protocol: 5×10^4 Keratinocytes isolated from the human epidermal tissue are put in each well of a 24-well plate and immobilized for 24 hours. After 16 hours, the keratinocytes are treated with 1% ginsenoside F2. For a comparison, the control group is not treated with ginsenoside F2. Each well is removed of the culture medium after 2 hours and then fed with 100 μl of a phosphate-buffered saline (PBS) solution. The keratinocytes are exposed to 30 mJ/cm^2 of ultraviolet radiation under an ultraviolet B (UVB) lamp (Model: F15T8, UV B 15 W, Sankyo Denki Co., Ltd., Japan). Each well is removed of the PBS solution and then supplied with 200 μl of the keratinocyte culture medium. The well is treated with ginsenoside F2 again. Then, the quantity of the reactive oxygen species (ROS) increased by the UV stimulation is determined at defined time intervals. The quantity of the reactive oxygen species (ROS) is determined according to the method that includes measuring the fluorescence of dichlorofluorescin diacetate (DCF-DA) (Tan et al., 1998, J. Cell Biol. Vol. 141, pp 1423-1432).

Test [2] concerns mouse with vitiligo (C57b1/6-Mitf^mi-vit). Briefly: Grey hair prevention: melanin in newly grown hair of mouse with vitiligo. The class given is in vivo. The settings on record: applied twice a day, about 3 weeks, 50 mM IBMX, 2.5% ginsenoside F2. The method, then: A mouse with vitiligo (C57b1/6-Mitf^mi-vit) is purchased from The Jackson Lab in U.S.A. The testing method on the grey hair inhibitory effect using a mouse with lots of grey hair is carried out as follows. A 12-week old mouse is subjected to depilation on the back side. The area of the depilated region is controlled to be the same to every object. From the next day of the depilation, the grey hair inhibitory substances are applied on the depilated region twice a day. The vehicle for the grey hair inhibitory substances is the mixture of EtOH, 1,3-BG and DW (3:2:5 in volume ratio). The liquid containing the vehicle alone is the negative control, the liquid containing the vehicle in combination with 50 mM IBMX is the positive control, and the liquid containing the vehicle in combination with 2.5% ginsenoside F2 is the test group. When the difference in the grey hair inhibitory effect between the substances is visually recognizable in about 3 weeks, the newly grown hair is collected to measure the quantity of melanin produced in the hair. The quantity of melanin in the hair is measured using esperase (Novozyme) strains that are a protein hydrolase. Esperase is dissolved in a buffer solution (50 mM tris-HCl, 5 mM DTT, pH 9.3) to a concentration of 1 NPU/ml to prepare a reaction buffer. 5 mg of mouse hair is put in 1 ml of the reaction buffer, which is stirred at a speed of 1,000 rpm at 37° C. for 13 hours to cause the reaction and then subjected to a momentary centrifugal isolation to separate the reactant solution from hair. The reactant solution thus obtained is placed in each well of a 96-well plate, and the absorbance at 405 nm is measured to determine the amount of melanin in the reactant solution. When a mouse with vitiligo and lots of grey hair is treated with the negative control substance, the positive control substance, or the test substance, the efficacies are visually observed, and the melanin in hair is quantitatively analyzed.

The test system of a further test is Human keratinocytes. Briefly: Promotion of keratinocyte differentiation (cornified envelope, absorbance 340 nm). Type of test: cell-based. Conditions: ginsenoside 5 ppm, 5 days; low calcium negative control = 100. The protocol:
The quantity of CE (Cornified Envelop) generated during differentiation of keratinocytes is measured in terms of absorbance in order to evaluate the ginsenoside F2 in regards to the effect of promoting differentiation of keratinocytes.
Human keratinocytes isolated from the epidermis of a newborn baby and subjected to a primary cultivation are immobilized in the bottom of a cultivation flask, treated with ginsenoside F2 applied to the culture medium to a concentration of 5 ppm, and cultured for 5 days until the keratinocytes grow to take up about 70 to 80% of the bottom area. In this regard, the negative control is the group treated with low calcium (0.03 mM), while the positive control is the group treated with high calcium (1.2 mM). Then, the cultured keratinocytes are harvested, washed with phosphate-buffered saline (PBS), treated with a 10 mM tris-HCl buffer solution (pH 7.4) containing 2% sodium dodecyl sulfate (SDS) and 20 mM dithiothreitol (DTT), and then subjected to sonication, boiling, and centrifugal isolation. The precipitation is suspended in 1 mL of PBS to measure the absorbance at 340 nm. Apart from this process, a part of the solution after sonication is collected and measured in regards to the protein content, which is determined as a reference in evaluating the degree of differentiation.

In another test the test system is collagenase (MMP-1). Kind of test: Collagenase (MMP-1) expression in human fibroblasts (ELISA). The settings on record: 10 μg/mL for 24 hours; not treated control = 100. Type of test: cell-based. The protocol:
The ginsenoside F2 of the present invention is measured in regards to the inhibitory effect on the generation of collagenase in comparison with retinoic acid. […] The human fibroblasts are treated with ginsenoside F2 or retinoic acid at a concentration of 10 μg/mL for 24 hours. Then, the cell culture medium is collected. The production yield of collagenase in the collected cell culture medium is measured using a collagenase measurement instrument commercially available (Catalog #. RPN 2610, USA Amersham Pharma Inc.). Firstly, the collected cell culture medium is put in each well of a 96-well plate uniformly coated with the primary collagenase antibodies and then subjected to antigen-antibody reactions in a thermostat container for 3 hours. After 3 hours, the secondary collagenase antibodies coupled to the chromophore groups are put in each well of the 96-well plate and then allowed to react for more 15 minutes. […] The intensity of yellowness in the reaction mixture is varied depending on the progress of the reaction. The absorbance of the yellow-colored 96-well plate is measured at 405 nm with a spectrophotometer, and the expression level of collagenase is calculated according to the following mathematical formula 2. In this regard, the absorbance of the cell culture medium collected from the group not treated with the composition of the present invention is considered as the absorbance of the control. [formula]
A general note: In an ELISA, binding on a coated surface is turned into a signal by an enzyme label.

Structures are written as SMILES.

Consider `CC(C)=CCC[C@](C)(O[C@@H]1O[C@H](CO)[C@@H](O)[C@H](O)[C@H]1O)[C@H]1CC[C@]2(C)[C@@H]1[C@H](O)C[C@@H]1[C@@]3(C)CC[C@H](O[C@@H]4O[C@H](CO)[C@@H](O)[C@H](O)[C@H]4O)C(C)(C)[C@@H]3CC[C@]12C` [Ginsenoside F2, ginsenoside F2], for which the “MITF (Western Blot, in comparison with 100 of the negative control group)” value came out at 92 in the test on MITF (24 hrs), 120 in the test with MITF (48 hrs) and 162 in the test with MITF (72 hrs). Besides, the “ratio to the ROS of the control group, elapsed time after exposure to 30 mJ/cm^2 of UVB 0 hr” value in test [1] came out at 100. In addition, the “ratio to the ROS of the control group, elapsed time after exposure to 30 mJ/cm^2 of UVB 2 hrs” value in test [1] was determined as 251. Moreover, in test [1], the “ratio to the ROS of the control group, elapsed time after exposure to 30 mJ/cm^2 of UVB 3 hrs” value turned out to be 286. Also, in test [2], the “Amount of melanin (%) with respect to control” value is reported as 110.8%. The “Differentiation in keratinocytes (%)” value in the test on Human keratinocytes is given as 309%. The “Collagenase expression level(%)” value in the test on collagenase (MMP-1) came out at 73%.
As for `CC(C)=CCC[C@](C)(O[C@@H]1O[C@H](CO[C@@H]2O[C@H](CO)[C@@H](O)[C@H](O)[C@H]2O)[C@@H](O)[C@H](O)[C@H]1O)[C@H]1CC[C@]2(C)[C@@H]1[C@H](O)C[C@@H]1[C@@]3(C)CC[C@H](O[C@@H]4O[C@H](CO)[C@@H](O)[C@H](O)[C@H]4O[C@@H]4O[C@H](CO)[C@@H](O)[C@H](O)[C@H]4O)C(C)(C)[C@@H]3CC[C@]12C` [Ginsenoside Rb1], the “MITF (Western Blot, in comparison with 100 of the negative control group)” value in the test with MITF (24 hrs) is on record as 93; in the test with MITF (48 hrs) it was 116; in the test on MITF (72 hrs), 144. Further, in test [1], the “ratio to the ROS of the control group, elapsed time after exposure to 30 mJ/cm^2 of UVB 0 hr” value was 100. Also, the “ratio to the ROS of the control group, elapsed time after exposure to 30 mJ/cm^2 of UVB 2 hrs” value in test [1] turned out to be 302. Moreover, the “ratio to the ROS of the control group, elapsed time after exposure to 30 mJ/cm^2 of UVB 3 hrs” value in test [1] is 354. The “Amount of melanin (%) with respect to control” value in test [2] was 107.1%. The “Differentiation in keratinocytes (%)” value in the test with Human keratinocytes is 265%. The “Collagenase expression level(%)” value in the test with collagenase (MMP-1) turned out to be 74%.
